Source: patent publication US8389551B2, “Optical enantiomers of phenyramidol and process for chiral synthesis” (Fermenta Biotech (UK) Limited, priority 2006, dated 2013)
Marks after values point to notes of the source that are not given here.

Columns and labels:
Type in all cases: in vivo
rats = test: Anti-arthritic activity, thickness of joint of right paw after injection of formalin; details: for Thickness of Joint (in cm) 0 hr: 0 hr (initial); for Thickness of Joint (in cm) 0 hr / Thickness of Joint (in cm) 2 hr: Phen 3 2400 mg, Phen 2 and Phen 4 1200 mg human daily dose extrapolated to rats, Diclofenac sodium 2 mg/Kg; for Thickness of Joint (in cm) 2 hr: 2 hr after formalin; for Thickness of Joint (in cm) 4 hr: 4 hr after formalin; for Thickness of Joint (in cm) 4 hr / Thickness of Joint (in cm) 8 hr / Thickness of Joint (in cm) 24 hr / Thickness of Joint (in cm) 48 hr / Thickness of Joint (in cm) 72 hr: doses as E38; for Thickness of Joint (in cm) 8 hr: 8 hr after formalin; for Thickness of Joint (in cm) 24 hr: 24 hr after formalin; for Thickness of Joint (in cm) 48 hr: 48 hr after formalin; for Thickness of Joint (in cm) 72 hr: 72 hr after formalin; for difference from normal control in thickness of the joint: at 2 hr, One Way ANOVA followed by Dunnett's Test; for Anti-arthritic activity (conclusion): formalin model, FIG. 18
Procedure: The anti-arthritic activity was assessed using following time points after the injection of formalin 2 hrs, 4 hrs, 8 hrs, 24 hrs, 48 hrs and 72 hrs. The control group (group 1) received 1% gum acacia. The Groups 2, 3, and 4 received the formulations viz: Phen 2, Phen 3 and Phen 4 respectively. Diclofenac was used as positive control and given to group 5. Human daily dose of 2400 mg (800 mg×3 times) was extrapolated to rats for 5 (racemate) Phen 3 and human daily dose of 1200 mg (400 mg×3 times) was extrapolated to rats for (isomer 1) Phen 2 and (isomer 2) Phen 4. Diclofenac sodium 2 mg/Kg was used as reference product.
Initial or 0 hr thickness of the joint of right paw of each animal was recorded. The thickness of the joint was measured using Vernier calipers at different time intervals after the injection of formalin. These efficacy variables were assessed at six time points 2 hrs, 4 hrs, 8 hrs, 24 hrs, 48 hrs and 72 hrs for each and every animal.

Wistar rats = test: Anti-inflammatory activity, carrageenin induced paw edema (plethysmometer); details: for % Increase in Paw volume 1 HR: 1 HR after carrageenan, oral, racemate 2400 mg, isomers 1200 mg human daily dose extrapolated to rats, Indomethacin 15 mg/kg, diclofenac 10 mg/kg; for % Increase in Paw volume 2 HR: 2 HR after carrageenan; for % Increase in Paw volume 2 HR / % Increase in Paw volume 3 HR / % Increase in Paw volume 5 HR: doses as E46; for % Increase in Paw volume 3 HR: 3 HR after carrageenan; for % Increase in Paw volume 5 HR: 5 HR after carrageenan
Procedure: Further, the investigations were carried out to determine the anti-inflammatory activities of the molecule of the present invention. Wistar rats weighing between 160-210 gm were divided into 6 groups of 10 animals each. Group I served as control (Placebo) and receive CMC and Group II & III received anti-inflammatory control (positive control) (Diclofenac & Indomethacin respectively). Group IV to VI were treated orally with test formulations. After 15 min. of drug administration, inflammation was induced by injecting 0.1 ml of freshly prepared 1% carrageenin (in normal saline) into the left hind paw of the rat. The paw volume of the […] was measured by measuring the displace fluid in other hand of plethysmometer.
Indomethacin (15 mg/kg and declofenac (10 mg/kg) was used as reference product. Percent increased in rat paw edema was measured and compare to normal control at each time intervals.
The antiinflammatory activity was assessed plethysmographically using following time points after the administration of carrageenan, 1 hr, 2 hrs, 3 hrs and 5 hrs.

swiss albino mice [1] = test: Analgesic activity, acetic acid induced writhing method
Procedure: The objective of the study was to evaluate the analgesic activity of the tested formulations of the compounds of the present invention. The test was conducted in Swiss albino mice using acetic acid induced writhing method. A total of 78 pre-screened mice (showing writhing response within 10 minutes*) were divided into 6 groups of 13 animals (6 males+7 females) each. The animals showing no writhing response within 10 mins were excluded. Diclofenac and pentazocine were used as positive controls. The formulations were given orally to the different groups of animals and the number of writhes counted for a period of 15 minutes, after the onset of writhes. If the onset of writhes occurred 30 after 10 minutes the number of writhes was recorded as V. The time of onset of writhes was recorded for each animal.
The control group received 1% gum acacia. The Groups 2, 3, and 4 received the formulations viz: Phen 2; Phen 3 and Phen 4 respectively. Diclofenac and pentazocine were used as positive control and given to groups 5 and 6 respectively. Diclofenac, a potent analgesic & anti-inflammatory agent; and 5 pentazocine an opoid analgesic were selected for comparative evaluation of test formulations. Both these drugs were administered to different groups of animals at the dose of 2 mg/kg. The group 1 (Phen 1) served as—Ve Control group in the study. Phen 5 (Diclofenac—2 mg/kg) and Positive Control: Phen 6 (Pentazocine 2 mg/kg) served as positive controls.
Human daily dose of 2400 mg (800 mg×3 times) was extrapolated to mice for Phen3 and human daily dose of 1200 mg (400 mg×3 times) was extrapolated to mice for Phen2 and Phen 4. The numbers of writhes observed are given below in Table 4 for each formulation.
Further, the evaluation of analgesic activity was carried out using variable dosage forms with different groups. A total of 100 animals (50 males+50 females) were selected randomly and distributed into ten main groups with 10 animals per group (5 M+5 F). Human daily dose of 2400 mg (800 mg×3 times) was extrapolated to mice for Phen 3 (Phenyramidol Racemic (Hydrochloride) and human daily dose of 1200 mg (400 mg×3 times), 1800 mg (400 mg×4.5 times), 2000 mg (400 mg×5 times) & 2400 mg (400 mg×6 times) was extrapolated to mice for Phen2 and Phen4 groups.
The control group 1 received 1% gum acacia and served as negative control group. Groups 2, 3, 4 & 5 received the formulation Phen2. Groups 6, 7, 8 & 9 received the formulation Phen 4 (Isomer 2) & Group 10 received the formulation Phen 3 (Racemic).
Further, one more experiment was done with phenyramidol hydrochloride to evaluate the analgesic activity at lesser dosage levels using acetic acid induced method. A total of 50 animals (25 males+25 females) were selected and randomly distributed into five main groups with 10 animals per group (5 M+5 F). 5 Human daily dose of 600 mg (400×1.5 times) & 1200 mg (800 mg×1.5 times) was extrapolated to mice for Phen 3 (Racemic) and human daily dose of 600 mg (400 mg×1.5 times) was extrapolated to mice for (−) Phenyramidol Hydrochloride & (+) Phenyramidol Hydrochloride and the results are discussed in Table 6.

mice = test: Central analgesic activity, tail flick analgesiometer
swiss albino mice [2] = test: Skeletal muscle relaxant activity, Rota rod apparatus, first experiment (oxalate salts, dose groups); details: at the doses mentioned
Procedure: The evaluation of skeletal muscle relaxant activity of the formulations containing phenyramidol racemic, dextro and laevo isomers of oxalate salts in swiss albino mice were carried out using Rota rod apparatus. Each animal was trained only once per day for 5 days. […] Mouse was placed on rota rod only when it achieved the speed of 25 rpm. The ‘fall off time’ in seconds was noted down when the mouse falls from rotating rod. Endurance time was measured up to 120 seconds. The skeletal muscle relaxant activity was assessed using 0 hr, 1 hr, 2 hrs, 4 hrs and 6 hrs time points after the dose administration. A total of 100 mice were selected and randomly distributed into ten main groups with 10 animals per group.
Control group receiving only vehicle served as a placebo in the study.
The test formulations were administered by oral route through gavage tube.(p.o.).
Two efficacy variables were assessed during the experiment: 1. Percent animal falling from the rod was noted; 2. Endurance Time (ET): The time taken for a mouse to fall from the rod was taken as endurance time. […] These efficacy variables were assessed at five time points 0 hr, 1 hr, 2 hr, 4 hr, and 6 hr for each and every animal.

[3] = Table 4, oral, writhes counted 15 minutes, Phen3 human daily dose 2400 mg, Phen2 and Phen 4 1200 mg extrapolated to mice, Diclofenac and Pentazocine 2 mg/kg
[4] = Table 5, dose 2400 mg (human daily dose extrapolated to mice), mean ± SD, n = 10
[5] = Table 6, dose 600 mg (human daily dose extrapolated to mice), mean ± SD, n = 10
[6] = experiment of Table 5 (variable doses)
[7] = experiment of Table 6, lesser dosage levels
[8] = 1 hr. after dose, human daily dose 2400 mg or 1200 mg extrapolated to mice, cut-off 10-12 seconds
[9] = 4 hr. after dose, human daily dose 2400 mg or 1200 mg extrapolated to mice, cut-off 10-12 seconds
[10] = Table 5, dose 1200 mg (human daily dose extrapolated to mice), mean ± SD, n = 10
[11] = Table 5, dose 1800 mg (human daily dose extrapolated to mice), mean ± SD, n = 10
[12] = Table 5, dose 2000 mg (human daily dose extrapolated to mice), mean ± SD, n = 10

Compound | Thickness of Joint (in cm) 0 hr (rats) | Thickness of Joint (in cm) 2 hr (rats) | Thickness of Joint (in cm) 4 hr (rats) | Thickness of Joint (in cm) 8 hr (rats) | Thickness of Joint (in cm) 24 hr (rats) | Thickness of Joint (in cm) 48 hr (rats) | Thickness of Joint (in cm) 72 hr (rats) | % Increase in Paw volume 1 HR (Wistar rats) | % Increase in Paw volume 2 HR (Wistar rats) | % Increase in Paw volume 3 HR (Wistar rats) | % Increase in Paw volume 5 HR (Wistar rats) | Average no. of writhes (swiss albino mice [1]; [3]) | Average no. of writhes (swiss albino mice [1]; [4]) | analgesic activity by decrease in the number of writhes induced by acetic acid (swiss albino mice [1]; experiment of Table 4) | analgesic activity by decrease in the number of writhes induced by acetic acid (swiss albino mice [1]; [6]) | Tail Flick Reaction Time (Sec.) 1 hr. (mice; mouse, in vivo) | Tail Flick Reaction Time (Sec.) 4 hr. (mice; mouse, in vivo) | other results
OC(CNc1ccccn1)c1ccccc1 (racemic) [Phen 3, 2-(β-hydroxyphenethylamino) pyridine, reference compound] | 0.48 ± 0.04 cm | 0.59 ± 0.03 cm | 0.59 ± 0.04 cm | 0.62 ± 0.06 cm | 0.52 ± 0.05 cm | 0.54 ± 0.05 cm | 0.55 ± 0.05 cm | 24.15 ± 7.27% | 44.73 ± 6.56% | 61.40 ± 18.21% | 47.13 ± 19.14% | 3.54 ± 3.95* | 4.20 ± 3.77* | significant analgesic activity | significant analgesic activity |  |  | Average no. of writhes (swiss albino mice [1]; [5]): 5.90 ± 6.14*; Average no. of writhes (swiss albino mice [1]; Table 6, dose 1200 mg (human daily dose extrapolated to mice), mean ± SD, n = 10): 1.50 ± 2.59*; analgesic activity by decrease in the number of writhes induced by acetic acid (swiss albino mice [1]; [7]): significant analgesic activity; Tail Flick Reaction Time (Sec.) 1 hr. (mice; [8]): 4.86 ± 3.023 s; Tail Flick Reaction Time (Sec.) 4 hr. (mice; [9]): 5.055 ± 2.735 s; analgesic activity (tail flick latency compared to control) (mice; at 4 hr after dose administration): significant analgesic activity
Cl.O[C@@H](CNc1ccccn1)c1ccccc1 [(−) Phenyramidol Hydrochloride, (R)-Phenyramidol Hydrochloride Salt] |  |  |  |  |  |  |  |  |  |  |  |  |  |  |  |  |  | Average no. of writhes (swiss albino mice [1]; [5]): 3.20 ± 4.16*; analgesic activity (summary statement) (swiss albino mice [1]; confirmed by an acetic acid induced writhing method): enhanced analgesic activity; analgesic activity by decrease in the number of writhes induced by acetic acid (swiss albino mice [1]; [7]): significant analgesic activity
O=C(O)Cc1ccccc1Nc1c(Cl)cccc1Cl [Diclofenac, reference compound] | 0.49 ± 0.04 cm | 0.56 ± 0.04 cm | 0.56 ± 0.04 cm | 0.62 ± 0.03 cm | 0.54 ± 0.05 cm | 0.53 ± 0.05 cm | 0.51 ± 0.03 cm | 15.77 ± 13.94% | 33.39 ± 7.35 % | 43.03 ± 15.41 % | 30.44 ± 9.52% | 4.08 ± 6.32* |  |  |  |  |  | difference from normal control in thickness of the joint (rats): significant decrease in the thickness of the joint; Tail Flick Reaction Time (Sec.) 1 hr. (mice; [8]): 3.41 ± 1.421 s; Tail Flick Reaction Time (Sec.) 4 hr. (mice; [9]): 2.48 ± 0.654 s
COc1ccc2c(c1)c(CC(=O)O)c(C)n2C(=O)c1ccc(Cl)cc1 [Indomethacin] |  |  |  |  |  |  |  | 18.58 ± 11.38% | 31.27 ± 4.75 % | 41.42 ± 12.54 % | 28.86 ± 8.22 % |  |  |  |  |  |  | 
CC(C)=CCN1CCC2(C)c3cc(O)ccc3CC1C2C (stereo not drawn) [Pentazocine] |  |  |  |  |  |  |  |  |  |  |  | 10.62 ± 9.47* |  |  |  | 3.0 ± 0.7055 s | 3.0 ± 0.7055 s | 
O=C(O)C(=O)O.O[C@H](CNc1ccccn1)c1ccccc1 [Phen 2, (S)-Phenyramidol Oxalate] | 0.45 ± 0.06 cm | 0.59 ± 0.03 cm | 0.56 ± 0.04 cm | 0.60 ± 0.06 cm | 0.54 ± 0.05 cm | 0.52 ± 0.04 cm | 0.50 ± 0.03 cm | 25.82 ± 11.67% | 40.57 ± 10.07% | 66.59 ± 20.88% | 48.71 ± 15.16% | 13.08 ± 9.93* | 6.00 ± 5.66* | significant analgesic activity | significant analgesic activity | 4.31 ± 1.754 s | 2.46 ± 0.591 s | skeletal muscle relaxant activity (conclusion) (swiss albino mice [2]): exhibit skeletal muscle relaxant activity; Average no. of writhes (swiss albino mice [1]; [10]): 11.90 ± 8.43*; Average no. of writhes (swiss albino mice [1]; [11]): 8.80 ± 6.78*; Average no. of writhes (swiss albino mice [1]; [12]): 8.20 ± 7.30*
O=C(O)C(=O)O.O[C@@H](CNc1ccccn1)c1ccccc1 [Phen 4, (R)-Phenyramidol Oxalate] | 0.49 ± 0.04 cm | 0.56 ± 0.05 cm | 0.56 ± 0.05 cm | 0.62 ± 0.03 cm | 0.55 ± 0.05 cm | 0.53 ± 0.04 cm | 0.51 ± 0.03 cm | 25.37 ± 10.44% | 39.90 ± 6.12% | 68.36 ± 22.20% | 49.65 ± 19.03% | 12.08 ± 4.21* | 4.50 ± 5.19* | significant analgesic activity | significant analgesic activity | 2.87 ± 1.071 s | 3.18 ± 1.540 s | difference from normal control in thickness of the joint (rats): significant difference (p<0.05); Anti-arthritic activity (conclusion) (rats): exhibits Anti-arthritic activity; Anti-arthritic activity (conclusion) (rats; listed as Phen4): significant anti-arthritic activity; Average no. of writhes (swiss albino mice [1]; [10]): 10.50 ± 6.65*; Average no. of writhes (swiss albino mice [1]; [11]): 6.20 ± 5.39*; Average no. of writhes (swiss albino mice [1]; [12]): 6.00 ± 6.41*
